Test results: PubChem BioAssay (NCI)
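Values below derive from 48-hour exposures of cells grown in 96-well plates, with endpoints linearly interpolated between the two concentrations bracketing the appropriate inhibition level. GI50: concentration for 50% inhibition of growth. TGI marks complete inhibition of growth.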

Experiments:
Assay in all cases: NCI tumour cell line growth inhibition, 48 h
786-0 renal = tested on: 786-0 renal
A498 renal = tested on: A498 renal
A549 NSCLC = tested on: A549 NSCLC
ACHN renal = tested on: ACHN renal
BT-549 breast = tested on: BT-549 breast
CAKI-1 renal = tested on: CAKI-1 renal
CCRF-CEM leukemia = tested on: CCRF-CEM leukemia
COLO 205 colon = tested on: COLO 205 colon
DU-145 prostate = tested on: DU-145 prostate
EKVX NSCLC = tested on: EKVX NSCLC
HCC-2998 colon = tested on: HCC-2998 colon
HCT-116 colon = tested on: HCT-116 colon
HCT-15 colon = tested on: HCT-15 colon
HL-60(TB) leukemia = tested on: HL-60(TB) leukemia
HOP-62 NSCLC = tested on: HOP-62 NSCLC
HOP-92 NSCLC = tested on: HOP-92 NSCLC
HS 578T breast = tested on: HS 578T breast
HT29 colon = tested on: HT29 colon
IGROV1 ovarian = tested on: IGROV1 ovarian
K-562 leukemia = tested on: K-562 leukemia
KM12 colon = tested on: KM12 colon
LOX IMVI melanoma = tested on: LOX IMVI melanoma
M14 melanoma = tested on: M14 melanoma
MALME-3M melanoma = tested on: MALME-3M melanoma
MCF7 breast = tested on: MCF7 breast
MDA-MB-231 breast = tested on: MDA-MB-231 breast
MDA-MB-435 = tested on: MDA-MB-435
MDA-MB-468 breast = tested on: MDA-MB-468 breast
MOLT-4 leukemia = tested on: MOLT-4 leukemia
NCI-H226 lung = tested on: NCI-H226 lung
NCI-H23 lung = tested on: NCI-H23 lung
NCI-H460 lung = tested on: NCI-H460 lung
NCI-H522 lung = tested on: NCI-H522 lung
OVCAR-3 ovarian = tested on: OVCAR-3 ovarian
OVCAR-4 ovarian = tested on: OVCAR-4 ovarian
OVCAR-5 ovarian = tested on: OVCAR-5 ovarian
OVCAR-8 ovarian = tested on: OVCAR-8 ovarian
PC-3 prostate = tested on: PC-3 prostate
RPMI-8226 leukemia = tested on: RPMI-8226 leukemia
RXF 393 renal = tested on: RXF 393 renal
SF-268 CNS = tested on: SF-268 CNS
SF-295 CNS = tested on: SF-295 CNS
SF-539 CNS = tested on: SF-539 CNS
SK-MEL-28 melanoma = tested on: SK-MEL-28 melanoma
SK-MEL-5 melanoma = tested on: SK-MEL-5 melanoma
SK-OV-3 ovarian = tested on: SK-OV-3 ovarian
SN12C renal = tested on: SN12C renal
SNB-19 CNS = tested on: SNB-19 CNS
SNB-75 CNS = tested on: SNB-75 CNS
SR leukemia = tested on: SR leukemia
SW-620 colon = tested on: SW-620 colon
T-47D breast = tested on: T-47D breast
TK-10 renal = tested on: TK-10 renal
U251 CNS = tested on: U251 CNS
UACC-257 melanoma = tested on: UACC-257 melanoma
UACC-62 melanoma = tested on: UACC-62 melanoma
UO-31 renal = tested on: UO-31 renal

Cc1cc(N=C(N)c2ccccc2)ccc1OCCCCCCCCn1ccnc1
GI50 (786-0 renal): 483 nM | TGI (786-0 renal): 4580 nM | GI50 (A498 renal): 8120 nM | TGI (A498 renal): 23700 nM | GI50 (A549 NSCLC): 803 nM | TGI (A549 NSCLC): 14900 nM | GI50 (ACHN renal): 547 nM | TGI (ACHN renal): 13200 nM | GI50 (BT-549 breast): 1450 nM | TGI (BT-549 breast): 11100 nM | GI50 (CAKI-1 renal): 580 nM | TGI (CAKI-1 renal): 12000 nM | GI50 (CCRF-CEM leukemia): 371 nM | TGI (CCRF-CEM leukemia): 12400 nM | GI50 (COLO 205 colon): 354 nM | TGI (COLO 205 colon): 1450 nM | GI50 (DU-145 prostate): 407 nM | TGI (DU-145 prostate): 14300 nM | GI50 (EKVX NSCLC): 422 nM | TGI (EKVX NSCLC): 13300 nM | GI50 (HCC-2998 colon): 224 nM | TGI (HCC-2998 colon): 1760 nM | GI50 (HCT-116 colon): 375 nM | TGI (HCT-116 colon): 11400 nM | GI50 (HCT-15 colon): 361 nM | TGI (HCT-15 colon): 11500 nM | GI50 (HL-60(TB) leukemia): 211 nM | TGI (HL-60(TB) leukemia): 659 nM | GI50 (HOP-62 NSCLC): 441 nM | TGI (HOP-62 NSCLC): 15200 nM | GI50 (HOP-92 NSCLC): 589 nM | TGI (HOP-92 NSCLC): 7870 nM | GI50 (HS 578T breast): 991 nM | TGI (HS 578T breast): 12100 nM | GI50 (HT29 colon): 239 nM | TGI (HT29 colon): 667 nM | GI50 (IGROV1 ovarian): 634 nM | TGI (IGROV1 ovarian): 12400 nM | GI50 (K-562 leukemia): 283 nM | TGI (K-562 leukemia): 11200 nM | GI50 (KM12 colon): 444 nM | TGI (KM12 colon): 13600 nM | GI50 (LOX IMVI melanoma): 327 nM | TGI (LOX IMVI melanoma): 1860 nM | GI50 (M14 melanoma): 323 nM | TGI (M14 melanoma): 1310 nM | GI50 (MALME-3M melanoma): 323 nM | TGI (MALME-3M melanoma): 1590 nM | GI50 (MCF7 breast): 312 nM | TGI (MCF7 breast): 10700 nM | GI50 (MDA-MB-231 breast): 540 nM | TGI (MDA-MB-231 breast): 4610 nM | GI50 (MDA-MB-435): 225 nM | TGI (MDA-MB-435): 573 nM | GI50 (MDA-MB-468 breast): 155 nM | TGI (MDA-MB-468 breast): 694 nM | GI50 (MOLT-4 leukemia): 565 nM | TGI (MOLT-4 leukemia): 17700 nM | GI50 (NCI-H226 lung): 332 nM | TGI (NCI-H226 lung): 1790 nM | GI50 (NCI-H23 lung): 262 nM | TGI (NCI-H23 lung): 4060 nM | GI50 (NCI-H460 lung): 388 nM | TGI (NCI-H460 lung): 11600 nM | GI50 (NCI-H522 lung): 245 nM | TGI (NCI-H522 lung): 986 nM | GI50 (OVCAR-3 ovarian): 366 nM | TGI (OVCAR-3 ovarian): 13100 nM | GI50 (OVCAR-4 ovarian): 2890 nM | TGI (OVCAR-4 ovarian): 35300 nM | GI50 (OVCAR-5 ovarian): 456 nM | TGI (OVCAR-5 ovarian): 11500 nM | GI50 (OVCAR-8 ovarian): 471 nM | TGI (OVCAR-8 ovarian): 2950 nM | GI50 (PC-3 prostate): 460 nM | TGI (PC-3 prostate): 16500 nM | GI50 (RPMI-8226 leukemia): 352 nM | TGI (RPMI-8226 leukemia): 1630 nM | GI50 (RXF 393 renal): 231 nM | TGI (RXF 393 renal): 1570 nM | GI50 (SF-268 CNS): 1220 nM | TGI (SF-268 CNS): 16600 nM | GI50 (SF-295 CNS): 259 nM | TGI (SF-295 CNS): 929 nM | GI50 (SF-539 CNS): 227 nM | TGI (SF-539 CNS): 567 nM | GI50 (SK-MEL-28 melanoma): 1010 nM | TGI (SK-MEL-28 melanoma): 8680 nM | GI50 (SK-MEL-5 melanoma): 325 nM | TGI (SK-MEL-5 melanoma): 1170 nM | GI50 (SK-OV-3 ovarian): 512 nM | TGI (SK-OV-3 ovarian): 14900 nM | GI50 (SN12C renal): 440 nM | TGI (SN12C renal): 7870 nM | GI50 (SNB-19 CNS): 753 nM | TGI (SNB-19 CNS): 17700 nM | GI50 (SNB-75 CNS): 418 nM | TGI (SNB-75 CNS): 7300 nM | GI50 (SR leukemia): 327 nM | TGI (SR leukemia): 19400 nM | GI50 (SW-620 colon): 463 nM | TGI (SW-620 colon): 20900 nM | GI50 (T-47D breast): 594 nM | TGI (T-47D breast): 21500 nM | GI50 (TK-10 renal): 1460 nM | TGI (TK-10 renal): 17200 nM | GI50 (U251 CNS): 355 nM | TGI (U251 CNS): 3100 nM | GI50 (UACC-257 melanoma): 1470 nM | TGI (UACC-257 melanoma): 13000 nM | GI50 (UACC-62 melanoma): 494 nM | TGI (UACC-62 melanoma): 7580 nM | GI50 (UO-31 renal): 680 nM | TGI (UO-31 renal): 8270 nM
